# Source: the NIST ThermoML archive (doi:10.1016/j.jct.2014.12.006)
# ± gives the expanded uncertainty stated by the source.
# Experiment: mn = molality of the nth substance listed, in mol/kg
# Settings: 298.15 K, 102 kPa, Liquid, Vibrating tube method
compound,measurement,setting,value
"CCCCCCCCCCCC[N+](C)(C)CC[N+](C)(C)CCCCCCCCCCCC.[Br-].[Br-] [1,2-bis(dimethyldodecylammonium)ethane dibromide] + O",mass density,m1 = 0.0005,997.078 ± 0.12 kg/m3
same,mass density,m1 = 0.00056,997.083 ± 0.12 kg/m3
same,mass density,m1 = 0.00065,997.091 ± 0.12 kg/m3
same,mass density,m1 = 0.0007,997.095 ± 0.12 kg/m3
same,mass density,m1 = 0.00079,997.103 ± 0.12 kg/m3
same,mass density,m1 = 0.00089,997.112 ± 0.12 kg/m3
same,mass density,m1 = 0.00095,997.117 ± 0.12 kg/m3
same,mass density,m1 = 0.00104,997.124 ± 0.12 kg/m3
same,mass density,m1 = 0.00107,997.126 ± 0.12 kg/m3
same,mass density,m1 = 0.00119,997.136 ± 0.12 kg/m3
same,mass density,m1 = 0.0013,997.144 ± 0.12 kg/m3
same,mass density,m1 = 0.00142,997.153 ± 0.12 kg/m3
same,mass density,m1 = 0.00168,997.172 ± 0.12 kg/m3
CCCCCCCCCCCCn1cc[n+](C)c1.[Br-] [1-dodecyl-3-methylimidazolium bromide] + O,mass density,m1 = 0.00525,997.226 ± 0.12 kg/m3
same,mass density,m1 = 0.00574,997.243 ± 0.12 kg/m3
same,mass density,m1 = 0.00615,997.258 ± 0.12 kg/m3
same,mass density,m1 = 0.007,997.288 ± 0.12 kg/m3
same,mass density,m1 = 0.00733,997.299 ± 0.12 kg/m3
same,mass density,m1 = 0.00816,997.329 ± 0.12 kg/m3
same,mass density,m1 = 0.00869,997.347 ± 0.12 kg/m3
same,mass density,m1 = 0.0092,997.365 ± 0.12 kg/m3
same,mass density,m1 = 0.01006,997.396 ± 0.12 kg/m3
same,mass density,m1 = 0.01063,997.412 ± 0.12 kg/m3
same,mass density,m1 = 0.01124,997.43 ± 0.12 kg/m3
same,mass density,m1 = 0.01196,997.451 ± 0.12 kg/m3
same,mass density,m1 = 0.01274,997.474 ± 0.12 kg/m3
same,mass density,m1 = 0.01356,997.498 ± 0.12 kg/m3
same,mass density,m1 = 0.01464,997.529 ± 0.12 kg/m3
same,mass density,m1 = 0.01526,997.545 ± 0.12 kg/m3
same,mass density,m1 = 0.01629,997.575 ± 0.12 kg/m3
same,mass density,m1 = 0.01707,997.595 ± 0.12 kg/m3
